# Results taken from ChEMBL document CHEMBL3400086, “Thieno[2,3-b]pyridines as negative allosteric modulators of metabotropic GluR5 receptors: Lead optimization” (Bioorg Med Chem Lett, 2015).
# pIC50, pKi: −log10 of the molar value.
# Columns and labels:
# Liver microsome [1] = assay: Intrinsic clearance in Wistar rat liver microsomes measured per gram of tissue at 2.5 uM; format: ADME
# [2] = target: Metabotropic glutamate receptor 5 (Rattus norvegicus) (UniProt P31424); assay: Displacement of [3H]-M-MPEP from rat cerebrocortical mGluR5 receptor at 1 uM
# Sequence of Metabotropic glutamate receptor 5 (Rattus norvegicus) (P31424 21-1203 limits assumed): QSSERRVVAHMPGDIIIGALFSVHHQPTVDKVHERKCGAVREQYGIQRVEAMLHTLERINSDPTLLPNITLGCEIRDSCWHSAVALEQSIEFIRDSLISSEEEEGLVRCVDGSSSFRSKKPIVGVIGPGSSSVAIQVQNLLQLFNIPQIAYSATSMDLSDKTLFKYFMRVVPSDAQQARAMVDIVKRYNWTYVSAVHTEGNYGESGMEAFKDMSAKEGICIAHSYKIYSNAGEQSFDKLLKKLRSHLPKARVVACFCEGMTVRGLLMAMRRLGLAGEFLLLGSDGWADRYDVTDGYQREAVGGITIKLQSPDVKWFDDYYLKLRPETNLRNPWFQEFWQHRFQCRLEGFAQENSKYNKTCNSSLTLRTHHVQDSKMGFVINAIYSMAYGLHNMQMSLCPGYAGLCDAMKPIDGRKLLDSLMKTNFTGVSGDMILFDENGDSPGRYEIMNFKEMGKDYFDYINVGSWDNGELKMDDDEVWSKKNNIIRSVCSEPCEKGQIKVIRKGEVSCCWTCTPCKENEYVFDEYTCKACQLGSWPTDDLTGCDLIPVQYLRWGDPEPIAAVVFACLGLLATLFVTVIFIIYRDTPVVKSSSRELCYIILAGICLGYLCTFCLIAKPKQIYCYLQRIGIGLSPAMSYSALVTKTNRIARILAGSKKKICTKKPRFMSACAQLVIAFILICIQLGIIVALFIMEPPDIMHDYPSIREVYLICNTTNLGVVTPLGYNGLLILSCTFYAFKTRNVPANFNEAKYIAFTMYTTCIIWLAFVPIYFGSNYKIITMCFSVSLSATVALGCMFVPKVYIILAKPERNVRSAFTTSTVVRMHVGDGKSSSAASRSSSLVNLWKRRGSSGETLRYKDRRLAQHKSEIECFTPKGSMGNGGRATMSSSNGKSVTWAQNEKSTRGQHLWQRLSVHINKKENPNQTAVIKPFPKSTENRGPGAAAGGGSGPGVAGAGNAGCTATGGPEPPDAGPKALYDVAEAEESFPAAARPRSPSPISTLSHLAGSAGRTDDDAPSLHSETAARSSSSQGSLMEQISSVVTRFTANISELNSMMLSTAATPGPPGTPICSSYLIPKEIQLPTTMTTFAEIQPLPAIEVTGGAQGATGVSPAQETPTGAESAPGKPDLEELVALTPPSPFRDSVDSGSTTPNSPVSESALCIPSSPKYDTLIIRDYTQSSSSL
# Liver microsome [3] = assay: Intrinsic clearance in human liver microsomes measured per gram of tissue at 2.5 uM; format: ADME
# Rattus norvegicus [4] = assay: Anxiolytic effect in ip dosed Wistar male rat assessed as increase in number of accepted shocks by vogel punished drinking test; format: functional
# Rattus norvegicus [5] = assay: Anxiolytic effect in po dosed Wistar male rat assessed as increase in number of accepted shocks by vogel punished drinking test; format: functional; conditions: read-out: MED
# [6] = target: T1, Metabotropic glutamate receptor 5 (Rattus norvegicus, UniProt P31424); assay: Negative allosteric modulation of mGlu5 receptor in primary E17 rat embryo neuron assessed as ca2+ level by fluo-4/AM assay
# T1 sequence (P31424 whole entry): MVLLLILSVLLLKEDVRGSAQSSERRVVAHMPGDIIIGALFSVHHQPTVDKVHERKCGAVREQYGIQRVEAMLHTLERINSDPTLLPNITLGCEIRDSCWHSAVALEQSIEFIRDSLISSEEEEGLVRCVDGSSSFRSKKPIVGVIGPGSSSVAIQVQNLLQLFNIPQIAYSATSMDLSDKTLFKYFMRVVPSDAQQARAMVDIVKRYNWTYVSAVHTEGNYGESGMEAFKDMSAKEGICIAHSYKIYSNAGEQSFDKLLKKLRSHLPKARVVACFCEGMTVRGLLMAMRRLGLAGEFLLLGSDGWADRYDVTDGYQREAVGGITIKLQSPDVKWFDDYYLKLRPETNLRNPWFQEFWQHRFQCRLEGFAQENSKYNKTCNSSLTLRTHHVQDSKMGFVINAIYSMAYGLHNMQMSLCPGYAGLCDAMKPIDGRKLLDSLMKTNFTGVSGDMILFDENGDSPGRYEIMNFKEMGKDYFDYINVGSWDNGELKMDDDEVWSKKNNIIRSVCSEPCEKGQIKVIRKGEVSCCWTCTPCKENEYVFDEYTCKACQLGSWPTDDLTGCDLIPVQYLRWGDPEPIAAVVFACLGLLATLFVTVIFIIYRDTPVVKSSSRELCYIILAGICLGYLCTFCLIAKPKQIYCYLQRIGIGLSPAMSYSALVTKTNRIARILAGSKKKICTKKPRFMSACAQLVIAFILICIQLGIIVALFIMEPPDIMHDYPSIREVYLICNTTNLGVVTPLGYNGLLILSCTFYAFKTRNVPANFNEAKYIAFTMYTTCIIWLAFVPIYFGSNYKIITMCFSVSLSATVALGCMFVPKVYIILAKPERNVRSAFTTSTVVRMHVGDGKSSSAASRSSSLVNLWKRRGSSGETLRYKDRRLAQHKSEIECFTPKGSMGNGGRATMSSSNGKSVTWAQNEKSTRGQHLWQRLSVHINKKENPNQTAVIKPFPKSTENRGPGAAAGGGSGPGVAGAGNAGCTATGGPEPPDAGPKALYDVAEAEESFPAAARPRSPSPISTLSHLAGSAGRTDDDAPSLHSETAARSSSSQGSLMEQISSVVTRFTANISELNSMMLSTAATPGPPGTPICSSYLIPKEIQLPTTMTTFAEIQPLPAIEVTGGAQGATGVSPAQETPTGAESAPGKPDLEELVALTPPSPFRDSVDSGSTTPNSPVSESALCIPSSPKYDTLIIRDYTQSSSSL
# [7] = target: T1, Metabotropic glutamate receptor 5; assay: Displacement of [3H]-M-MPEP from rat cerebrocortical mGluR5 receptor
CLH (Liver microsome [1]),inhibition [2],CLH (Liver microsome [3]),pIC50 [6],pKi [7],SMILES,further results
4.2 mL/min/g,50%,0.3 mL/min/g,,,COc1ccc2c(-c3ccc(Cl)cc3)c(S(=O)(=O)c3cccc(C#N)c3)sc2n1,
,14%,,,,O=S(=O)(c1sc2ncccc2c1-c1ccc(Cl)cc1)C1CCCCC1,
9.3 mL/min/g,11%,3 mL/min/g,,,O=S(=O)(c1ccc(Cl)cc1)c1sc2ncccc2c1Oc1ccc(Cl)cc1,
6.5 mL/min/g,20%,1 mL/min/g,,,COc1ccnc2sc(S(=O)(=O)c3ccc(Cl)cc3)c(-c3ccc(Cl)cc3)c12,
,35%,,,,Cc1nc(C)c(S(=O)(=O)c2sc3ncccc3c2-c2ccc(Cl)cc2)s1,
,6%,,,,CC(=O)Nc1ccc(S(=O)(=O)c2sc3ncccc3c2-c2ccc(Cl)cc2)cc1,
,0%,,,,Cc1cc(C)c(S(=O)(=O)c2sc3ncccc3c2-c2ccc(Cl)cc2)c(C)c1,
3.6 mL/min/g,19%,1.4 mL/min/g,,,N#Cc1cccc(S(=O)(=O)c2sc3nc(Cl)ccc3c2-c2ccc(Cl)cc2)c1,
,39%,,,,CC1CCN(S(=O)(=O)c2sc3ncccc3c2-c2ccc(Cl)cc2)CC1,
3.7 mL/min/g,2%,1.4 mL/min/g,,,CN(C)c1ccc2c(-c3ccc(Cl)cc3)c(S(=O)(=O)c3ccc(Cl)cc3)sc2n1,
4.2 mL/min/g,,1.6 mL/min/g,,,O=S(=O)(c1ccc(Cl)cc1)c1sc2ncccc2c1-c1ccc(Cl)cc1,Activity (Rattus norvegicus [4]): Dose-dependent effect; minimal effective dose (Rattus norvegicus [4]; read-out: MED): 40 mg/kg
1.2 mL/min/g,,0.9 mL/min/g,8.26,,N#Cc1cc(F)cc(S(=O)(=O)c2sc3ncc(N)cc3c2-c2cccc(F)c2)c1,minimal effective dose (Rattus norvegicus [5]): 3 mg/kg
,0%,,,,Cc1noc(C)c1S(=O)(=O)c1sc2ncccc2c1-c1ccc(Cl)cc1,
,30%,,,,CCCCS(=O)(=O)c1sc2ncccc2c1-c1ccc(Cl)cc1,
,34%,,,,O=S(=O)(c1cccs1)c1sc2ncccc2c1-c1ccc(Cl)cc1,
2.9 mL/min/g,62%,0.1 mL/min/g,,,N#Cc1ccc(-c2c(S(=O)(=O)c3cccc(C#N)c3)sc3ncccc23)cc1,
3.9 mL/min/g,,1.1 mL/min/g,6.98,7.07,N#Cc1cccc(-c2c(S(=O)(=O)c3cccc(C#N)c3)sc3ncccc23)c1,
3.5 mL/min/g,,2.4 mL/min/g,8.82,8.96,N#Cc1cc(F)cc(S(=O)(=O)c2sc3ncccc3c2-c2ccccc2F)c1,

CLH (Liver microsome [1]),inhibition [2],CLH (Liver microsome [3]),pIC50 [6],pKi [7],SMILES,further results
,25%,,,,O=S(=O)(Cc1ccccc1)c1sc2ncccc2c1-c1ccc(Cl)cc1,
1.2 mL/min/g,,0.8 mL/min/g,8.19,8.55,N#Cc1cc(F)cc(S(=O)(=O)c2sc3ncc(N)cc3c2-c2ccc(F)cc2)c1,
0.7 mL/min/g,34%,0.01 mL/min/g,,,O=S(=O)(c1ccc(Cl)cc1)c1sc2nccc(O)c2c1-c1ccc(Cl)cc1,
4.1 mL/min/g,,2.4 mL/min/g,6.87,7.29,O=S(=O)(c1ccc(Cl)cc1)c1sc2ncccc2c1-c1ccccc1F,
2.4 mL/min/g,,1.5 mL/min/g,8.62,8.66,N#Cc1cc(F)cc(S(=O)(=O)c2sc3ncccc3c2-c2cccc(F)c2)c1,
1 mL/min/g,,1.1 mL/min/g,7.47,8.03,N#Cc1cc(F)cc(S(=O)(=O)c2sc3ncc(N)cc3c2-c2cnccc2Cl)c1,
1 mL/min/g,,1.3 mL/min/g,7.52,8.66,N#Cc1cc(F)cc(S(=O)(=O)c2sc3ncc(N)cc3c2-c2ccc(Cl)cc2)c1,
,32%,,,,O=S(=O)(c1ccccc1Cl)c1sc2ncccc2c1-c1ccc(Cl)cc1,
1 mL/min/g,,0.9 mL/min/g,8.05,8.57,N#Cc1cc(F)cc(S(=O)(=O)c2sc3ncc(N)cc3c2-c2ccc(F)c(F)c2)c1,
2.5 mL/min/g,,1.1 mL/min/g,8.80,8.82,N#Cc1cc(F)cc(S(=O)(=O)c2sc3ncc(N)cc3c2-c2ccccc2F)c1,
13.6 mL/min/g,,3.4 mL/min/g,7.04,7.66,O=S(=O)(c1ccc(Cl)cc1)c1sc2ncccc2c1-c1ccc(F)cc1,
,20%,,,,O=S(=O)(Nc1ccc(Cl)cc1)c1sc2ncccc2c1-c1ccc(Cl)cc1,
0.7 mL/min/g,,0.6 mL/min/g,7.74,7.82,N#Cc1cc(F)cc(S(=O)(=O)c2sc3ncc(N)cc3c2-c2cnccc2F)c1,
17.7 mL/min/g,,3.3 mL/min/g,7.36,7.85,Cc1cccc(-c2c(S(=O)(=O)c3cccc(C#N)c3)sc3ncccc23)c1,
3.7 mL/min/g,,2.8 mL/min/g,6.76,7.19,O=S(=O)(c1ccc(Cl)cc1)c1sc2ncccc2c1-c1ccccc1Cl,
,30%,,,,O=S(=O)(NCc1ccc(Cl)cc1)c1sc2ncccc2c1-c1ccc(Cl)cc1,
2.4 mL/min/g,13%,0.4 mL/min/g,,,CS(=O)(=O)c1ccc(-c2c(S(=O)(=O)c3ccc(Cl)cc3)sc3ncccc23)cc1,
